Assays:
[1] = tested on: rumen bacteria; test: In vitro bacterial gas inhibition; assay type: cell-based; conditions: at the concentration known to kill protozoa
Experimental: Compounds of Table 1 were also tested for toxicity bacteria. This involved removing protozoa from rumen liquor by centrifugation at 2,000 g for 5 minutes and collecting the bacterial rich supernatant. Nitrogen and energy substrate was added to the bacterial preparation which was then dispensed in triplicate 10 ml volumes over the same range of compound concentrations (50, 150, 250 and 500 ppm.) referred to in Example 2. Control tubes were placed after every second compound to enable the inhibition of gas resulting from the compound to be assessed. […] It can be seen that these compounds are selective in their mode of action, in that they are more toxic to protozoa than bacteria.

[2] = tested on: rumen ciliate protozoa; test: Protozoal reduction in sheep; assay type: in vivo; set-up: concentration or dose not given beside the values; conditions: one week after dosing, relative to predosing numbers
Experimental: Defaunation compositions were prepared according to the method of Example 1.
Prior to dosing of the compound, a sample of rumen liquor (200 ml) was withdrawn to establish basal numbers of protozoa.
The sample was collected using a stomach tube, inserted into the rumen via a rumen cannula (fistulated animals) or per esophagus (intact animals). After straining the sample was well mixed using a magnetic stirrer and a 0.5 ml sample was withdrawn and added to 49.5 ml of a crystal violet stain. Protozoa were counted using a microscope and a Hawksley counting chamber.
One week after administering the compound, another rumen liquor sample was collected (as described above) and examined for the presence of protozoa. Where rumen ciliate protozoa were undetectable, a reduction or inhibition value of 100% was recorded. In general, most compounds expressed a strong inhibitory effect on protozoal populations.

[3] = Wool growth in defaunated sheep; assay type: in vivo; conditions: 167 mg/kg; for Response To Defaun: clean wool growth defaunated vs refaunated
Experimental: Seven sheep each were defaunated using a dose rate of 167 mg/kg. Compounds were administered by first mixing with 20 ml of ethanol and then with 200 ml of centrifuged rumen liquor. This solution was then administered via a flexible stomach tube directly into the rumen. The sheep were fed with a ration of 90% oaten chaff and 10% Lucerne chaff at a rate of 1000 g per day. The sheep were maintained in a defaunated state by their isolation from faunated sheep to prevent the possibility of refaunation. The sheep were allowed to adjust for 3 weeks after administering the compound before any wool growth measurements were taken.
At the start of the wool growth measurement period, a 10 cm square area of wool was removed from both sides of the sheep. After four weeks the same area was reclipped and the wool retained for scouring at the end of the trial.
The sheep then had protozoa introduced back into their rumen and were allowed to adjust for three weeks. Similarly, during the second four week period, the wool was clipped from the same patch area. The wool harvested during the two four week trial periods was then scoured of wool wax and extraneous material and weighed.

[4] = tested on: rumen bacteria; test: Sheep test: bacterial gas production; assay type: in vivo
Experimental: In this trial the effect of defaunation by compounds 27, 30 and 37 (see Table 1) after 1 and 3 weeks were examined using penned sheep.
The compounds were each administered to two sheep as a single dose at 167 mg/kg body weight. Compositions containing each compound were prepared according to the method of Example 1. Sheep were penned and fed 1000 g/day of a chaffed oaten hay and Lucerne mixture (90/10). Protozoal and bacterial viabilities were monitored along with the feed intake of the sheep according to the methods taught in Examples 2, 3 and 7.

[5] = Pilot field testing: adverse effects and grazing behavior; assay type: in vivo; conditions: sheep, 167 mg/kg
Experimental: In this trial the effect of defaunation agents after 1 and 2 weeks was examined in sheep in pilot field studies.
Thirty mature fine wooled merino weather sheep consuming a forage diet were given a single dose of either compound 27 or 37. The dose rate was 167 mg/kg and each compound was dispersed in 20 mL of ethanol and 200 mL of centrifuged rumen liquor. The compounds were then administered into the rumen using a flexible stomach tube.

[6] = Liveweight gain of growing lambs; assay type: in vivo, lambs (sheep); conditions: 332 mg/kg
Experimental: (§1) Three cross-bred lambs were defaunated with compound 37 at dose rate of 332 mg per kg liveweight. The lambs were allowed four weeks to adapt to defaunation before commencing the trial. The lambs were grazed at pasture. Ten control (faunated) cohorts of the defaunated group, which were matched for liveweight, were grazed in the same paddock, but separated from the defaunated lambs by a double-fence (4 meter separation). This was to prevent the faunated lambs contaminating the defaunated lambs. Both groups of lambs were weighed on four occasions at three weekly intervals. Protozoa were also monitored at the same time.

[7] = tested on: protozoa; test: Protozoal population number in growing lambs; assay type: in vivo, lambs (sheep)
Experimental: as §1

[8] = Growth and carcass measurements in lambs; assay type: in vivo, lambs (sheep); conditions: 332 mg/kg
Experimental: as §1, with “Then” for “Ten”, “lambs.” for “lambs. Both groups of lambs were weighed on four occasions at three weekly intervals. Protozoa were also monitored at the same time.”
At 16 weeks post-defaunation both groups of the lambs were sacrificed and measurements taken.
Also shown is the cross-sectional area of the longissimus dorsi (loin eye muscle) measured between the 12th and 13th rib.

[9] = tested on: protozoa; test: Reliability of defaunation using 2 repeated doses in sheep; assay type: in vivo; conditions: Group 1, 2 doses, 4 weeks
Experimental: Sheep were fed a diet of 900 g oaten chaff daily, except that food and water were withheld for 19 hours before and 24 hours after dosing. Each dose was prepared by mixing compound 37 with 20 ml of ethanol followed by 200 ml of centrifuged rumen liquor, to give a dose of 167 mg/kg body weight, administered by rumen tube. Rumen protozoa were counted weekly following the final treatment.
Sixty (60) Sheep, in three successive trials of 20 each, were treated with 2 doses of compound 37, one week apart, according to the method of Example 14. Protozoa were counted at 4 or 5 weeks after the second treatment.

[10] = The Pesticide Manual, 9th Ed. 1991; cited from earlier work

## Cc1ccc(Nc2nc(Cl)nc(Cl)n2)cc1Cl [Compound 27, 2,4 dichloro-6-(3 chloro-4-methylanilino)-s-triazine]
[1]
  Bact. Gas Inhibition at the conc. required to kill protozoa: 67
[2]
  Protozoal Reduction: 100%
[3]; sheep
  Response To Defaun: 10.3
[3]; sheep, defaunated period, 4 weeks, per midside patch
  Clean Wool Growth: 1.753 g
[4]; 1 week after 167 mg/kg
  Bacterial gas production: 3.5 M1 per 5 hr
[4]; 3 weeks after 167 mg/kg
  Bacterial gas production: 3.8 M1 per 5 hr
[4]; pre-dose (baseline)
  Bacterial gas production: 2.9 M1 per 5 hr
[5]
  Adverse effects and grazing behavior: no adverse effects and grazing behavior was normal

## Clc1nc(Cl)nc(Nc2ccccc2Cl)n1 [Compound 37, 2,4-dichloro-6-(2-chloroanilino)-1,3,5-triazine]
[1]
  Bact. Gas Inhibition at the conc. required to kill protozoa: 57
[2]
  Protozoal Reduction: 100%
[3]; 672 h
  Clean Wool Growth: 1.773 g
[3]; sheep
  Response To Defaun: 8.9
[4]; 1 week after 167 mg/kg
  Bacterial gas production: 1.9 M1 per 5 hr
[4]; 3 weeks after 167 mg/kg
  Bacterial gas production: 3.4 M1 per 5 hr
[4]; pre-dose (baseline)
  Bacterial gas production: 1.8 M1 per 5 hr
[5]
  Adverse effects and grazing behavior: no adverse effects and grazing behavior was normal
[6]; over controls, P<0.01
  Rate of liveweight gain (in words): highly significant improvement in the rate of liveweight gain
[6]; relative to control
  ADG Increase: 65%
[6]; weeks 0-12
  ADG: 165 g/day
[7]; week 0, 332 mg/kg
  Protozoal numbers: 0 per mL × 10^3
[7]; week 3, 332 mg/kg
  Protozoal numbers: 0 per mL × 10^3
[7]; week 6, 332 mg/kg
  Protozoal numbers: 0 per mL × 10^3
[7]; week 9, 332 mg/kg
  Protozoal numbers: 0 per mL × 10^3
[7]; week 12, 332 mg/kg
  Protozoal numbers: 0 per mL × 10^3
[8]; vs control, p < 0.01
  ADG, response to defaun.: 72%
  Carcass dressing out percentage, response to defaun.: 16%
  Loin eye muscle area, response to defaun.: 26%
[8]; defaunation
  ADG (average daily gain): 165 g/day
[8]; defaunation, 16 weeks, between 12th and 13th rib
  Loin eye muscle area: 12.5 CM^2
[8]; defaunation, 16 weeks, cold carcass weight as percentage of liveweight
  Carcass dressing out percentage: 44.5%
[9]
  Residual protozoal population (in words): one sheep had a residual protozoal population
[10]
  LD50: > 4000 mg/kg
